Read-outs that look alike come from different tables or passages of the source.

For one assay, the target named is T1, CFTR (Homo sapiens, UniProt P13569).
T1 construct: endogenous in cells; host or cells: T84 human colonic cells (ECACC)
Briefly: T84 assay (FLIPR membrane potential dye, forskolin/IBMX-stimulated CFTR channel activity). The assay is classed as cell-based. The gist of the method: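 Fluorescence from a membrane potential dye in T84 monolayers (HBSS with 10 mM Hepes) is followed each second for 150 s. Cells are exposed to test compound during the 45 min dye loading, then challenged with forskolin (10 μM) and IBMX (100 μM) to open CFTR. Inhibitors suppress the depolarization-driven fluorescence increase.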

For assay [1], the system named is cholera toxin (CTX) induced net fluid secretion in intestinal loops. The experiment in a line: animal or person. The assay is classed as in vivo, mice (CD1 strain). As to conditions: 4 hours; for inhibition in vivo at 100 µg/loop: Mus musculus, read-out: closed loop % inhibition @ 100 μg.
For another assay, the target named is T2, CHO-CFTR cell line (Homo sapiens, UniProt P13569).
T2 construct: expressed in transfected cells; host or cells: CHO (CHO-CFTR cell line)
The experiment in a line: CHO-CFTR assay (FLIPR assay, same conditions as the T84 assay). In kind it is cell-based. As to conditions: imidazole and triazole-containing compounds.

Setting [2] is: oxadiazole-containing compounds (a series), average of at least 2 runs unless annotated n = 1, read-out: IC50.
Where [3] appears, read: imidazole and triazole-containing compounds (Tables 13, 14, 14′), read-out: IC50 (μM) (T84 assay).

T1 sequence (P13569 whole entry): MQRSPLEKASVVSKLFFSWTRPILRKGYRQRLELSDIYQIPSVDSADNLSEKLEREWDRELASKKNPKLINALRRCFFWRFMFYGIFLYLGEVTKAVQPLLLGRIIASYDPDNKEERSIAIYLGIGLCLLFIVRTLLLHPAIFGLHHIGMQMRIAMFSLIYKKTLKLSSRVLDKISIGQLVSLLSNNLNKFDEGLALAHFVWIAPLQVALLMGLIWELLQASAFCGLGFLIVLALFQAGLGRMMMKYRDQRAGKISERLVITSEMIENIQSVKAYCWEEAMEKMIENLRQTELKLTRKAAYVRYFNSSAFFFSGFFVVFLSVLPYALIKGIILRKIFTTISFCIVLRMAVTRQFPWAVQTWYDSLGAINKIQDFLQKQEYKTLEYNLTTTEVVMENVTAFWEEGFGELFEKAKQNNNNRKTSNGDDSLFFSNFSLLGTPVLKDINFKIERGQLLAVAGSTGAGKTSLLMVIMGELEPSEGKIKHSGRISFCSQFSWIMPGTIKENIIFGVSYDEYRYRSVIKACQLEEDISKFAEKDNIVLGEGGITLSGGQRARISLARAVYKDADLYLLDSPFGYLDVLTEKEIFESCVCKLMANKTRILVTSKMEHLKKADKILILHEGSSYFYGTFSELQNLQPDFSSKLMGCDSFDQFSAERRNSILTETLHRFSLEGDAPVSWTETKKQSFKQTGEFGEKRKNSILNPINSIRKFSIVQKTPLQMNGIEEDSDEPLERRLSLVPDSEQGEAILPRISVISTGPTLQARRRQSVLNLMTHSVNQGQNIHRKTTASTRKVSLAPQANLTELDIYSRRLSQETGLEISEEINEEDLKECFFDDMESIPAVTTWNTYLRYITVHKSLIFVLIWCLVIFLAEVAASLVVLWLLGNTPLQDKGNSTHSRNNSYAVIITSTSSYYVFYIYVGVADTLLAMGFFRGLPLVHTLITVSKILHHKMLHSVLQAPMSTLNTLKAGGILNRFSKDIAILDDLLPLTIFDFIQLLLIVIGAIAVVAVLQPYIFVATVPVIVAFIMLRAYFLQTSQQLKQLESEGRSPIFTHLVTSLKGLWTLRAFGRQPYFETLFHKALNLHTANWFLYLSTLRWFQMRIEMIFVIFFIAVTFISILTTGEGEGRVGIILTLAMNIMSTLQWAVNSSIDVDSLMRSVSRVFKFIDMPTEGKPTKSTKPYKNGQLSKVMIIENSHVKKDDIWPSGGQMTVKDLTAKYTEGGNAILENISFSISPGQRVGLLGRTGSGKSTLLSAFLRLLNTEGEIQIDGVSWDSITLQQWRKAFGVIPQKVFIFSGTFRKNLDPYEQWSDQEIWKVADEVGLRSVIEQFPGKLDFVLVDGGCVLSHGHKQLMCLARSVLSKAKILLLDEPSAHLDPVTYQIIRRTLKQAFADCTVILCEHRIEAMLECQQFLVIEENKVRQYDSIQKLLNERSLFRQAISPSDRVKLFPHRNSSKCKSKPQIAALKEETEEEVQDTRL
T2 sequence (P13569 whole entry): as above

On to `O=C(NCc1ccc(Oc2ccccc2)cc1)c1nc(-c2cc(Br)c(O)c(Br)c2)no1` [13a, 3-(3,5-dibromo-4-hydroxyphenyl)-N-(4-phenoxybenzyl)-1,2,4-oxadiazole-5-carboxamide], for which, at CFTR (setting [2]), the IC50 worked out at 8.51 µM. Besides, in assay [1], the “closed loop % inhibition @ 10 μg” value stood at 88.6% and the inhibition in vivo at 100 µg/loop turned out to be 94.7%.

Take `Oc1c(Br)cc(-c2cnc(COc3cccc(Cl)c3Cl)nn2)cc1Br` [30e, 2,6-dibromo-4(3-((2,3-dichlorophenoxy)methyl)-1,2,4-triazin-6-yl)phenol]: the “closed loop % inhibition @ 100 μg” value in assay [1] is given as 94.4%.

As for `CC(C)(C)C(=O)CN(Cc1cccc(C(F)(F)F)c1)C(=O)c1nc(-c2cc(Br)c(O)c(Br)c2)no1` [1a, 3-(3,5-dibromo-4-hydroxyphenyl)-N-(3,3-dimethyl-2-oxobutyl)-N-(3-(trifluoromethyl)benzyl)-1,2,4-oxadiazole-5-carboxamide], the 50% inhibitory concentration (IC50) at CFTR (setting [2]) is 0.98 µM. Also, in assay [1], the “closed loop % inhibition @ 10 μg” value is reported as 69.4% and the inhibition in vivo at 100 µg/loop is 87.1%.

As for `O=C(NCc1cc(F)cc(F)c1)c1noc(-c2cc(Cl)c(O)c(Cl)c2)n1` [112a, 5-(3,5-dichloro-4-hydroxyphenyl)-N-(3,5-difluorobenzyl)-1,2,4-oxadiazole-3-carboxamide], on CFTR (setting [2]), the IC50 amounted to 11.2 µM. In assay [1], the inhibition in vivo at 100 µg/loop stood at 51%.

On to `Oc1c(Cl)cc(-c2cnc(C(O)(c3ccccc3)c3ccccc3)nn2)cc1Cl` [36e, 2,6-dichloro-4-(3-(hydroxydiphenylmethyl)-1,2,4-triazin-6-yl)phenol], for which, in assay [1], the “closed loop % inhibition @ 10 μg” value was 62.1% and the “closed loop % inhibition @ 100 μg” value amounted to 74.9%.

As for `Oc1c(Br)cc(-c2cnc(OCc3ccc(Cl)cc3)nn2)cc1Br` [20e, 2,6-dibromo-4-(3-(4-chlorobenzyloxy)-1,2,4-triazin-6-yl)phenol], the “closed loop % inhibition @ 100 μg” value in assay [1] came to 87.6%.

On to `CN(Cc1ccc(C(F)(F)F)cc1)C(=O)c1cc(-c2cc(Br)c(O)c(Br)c2)on1` [2g, 5-(3,5-Dibromo-4-hydroxyphenyl)-N-methyl-N-(4(trifluoromethyl)benzyl)isoxazole-3-carboxamide], for which, on CFTR (isoxazole-containing compounds (Table 10, 10′, 11, 11′), read-out: IC50), the IC50 came to 6.96 µM. Moreover, in assay [1], the “closed loop % inhibition @ 10 μg” value is on record as −66.3% and the inhibition in vivo at 100 µg/loop is 94.2%.

Consider `Oc1c(Cl)cc(-c2cnc(OCc3ccccc3F)nn2)cc1Cl` [127e, 2,6-dichloro-4-(3-(2-fluorobenzyloxy)-1,2,4-triazin-6-yl)phenol], for which, in assay [1], the “closed loop % inhibition @ 10 μg” value worked out at 62.7% and the “closed loop % inhibition @ 100 μg” value is 70.2%.

`O=C(NCc1cccc(OC(F)(F)F)c1)c1noc(-c2cc(Br)c(O)c(Br)c2)n1` [65a, 5-(3,5-Dibromo-4-hydroxyphenyl)-N-(3-(trifluoromethoxy)benzyl)-1,2,4-oxadiazole-3-carboxamide]: the IC50 on CFTR (setting [2]) turned out to be 1.53 µM. Further, the inhibition in vivo at 100 µg/loop in assay [1] was 94.6%.

Turning to `OCCN(Cc1ccccc1)c1ccc(-c2cc(Cl)c(O)c(Cl)c2)nn1` [98f, 4-(6-(benzyl(2-hydroxyethyl)amino)pyridazin-3-yl)-2,6-dichlorophenol], in assay [1], the “closed loop % inhibition @ 100 μg” value amounted to 67.0%.

`Oc1c(Br)cc(-c2cnc(OCCc3ccccc3)nn2)cc1Br` [96e, 2,6-dibromo-4-(3-phenethoxy-1,2,4-triazin-6-yl)phenol]: the “closed loop % inhibition @ 100 μg” value in assay [1] is reported as 78.6%.

Turning to `C=CCN(Cc1cccc(OC(F)(F)F)c1)C(=O)c1ncn(-c2cc(Cl)c(O)c(Cl)c2)n1` [103i, N-allyl-1-(3,5-dichloro-4-hydroxyphenyl)-N-(3-(trifluoromethoxy)benzyl)-1H-1,2,4-triazole-3-carboxamide], the IC50 stood at 2.53 µM on CFTR (setting [3]) and 32.9 µM on CHO-CFTR cell line.

Consider `O=C(c1ncn(-c2cc(Cl)c(O)c(Cl)c2)n1)N(Cc1ccccc1)Cc1cccnc1` [75i, N-benzyl-1-(3,5-dichloro-4-hydroxyphenyl)-N-(pyridin-3-ylmethyl)-1H-1,2,4-triazole-3-carboxamide], for which the IC50 amounted to 15.6 µM on CFTR (setting [3]) and 40.1 µM on CHO-CFTR cell line.

In the case of `O=C(NCc1ccc(Oc2ccc(Cl)c(C(F)(F)F)c2)cc1)c1ncn(-c2cc(Cl)c(O)c(Cl)c2)n1` [70i, N-(4-(4-chloro-3-(trifluoromethyl)phenoxy)benzyl)-1-(3,5-dichloro-4-hydroxyphenyl)-1H-1,2,4-triazole-3-carboxamide], the IC50 on CFTR (setting [3]) was 4.72 µM; at CHO-CFTR cell line it was 19.4 µM.

As to `O=C(NCc1cccc(OC(F)(F)F)c1)c1noc(-c2cc(Cl)c(O)c(Cl)c2O)n1` [120a, 5-(3,5-dichloro-2,4-dihydroxyphenyl)-N-(3-(trifluoromethoxy)benzyl)-1,2,4-oxadiazole-3-carboxamide], on CFTR (setting [2]), the concentration for half-maximal inhibition (IC50) turned out to be 12.4 µM. For the same molecule, the inhibition in vivo at 100 µg/loop in assay [1] was 62.3%.

In the case of `CCN(Cc1ccc(Oc2ccccc2)cc1)C(=O)c1ncn(-c2cc(Cl)c(O)c(Cl)c2)n1` [86i, 1-(3,5-dichloro-4-hydroxyphenyl)-N-ethyl-N-(4-phenoxybenzyl)-1H-1,2,4-triazole-3-carboxamide], the IC50 on CFTR (setting [3]) stood at 1.81 µM; at CHO-CFTR cell line it was 28.9 µM.

In the case of `CCN(Cc1ccccc1)c1ccc(-c2cc(Cl)c(O)c(Cl)c2)nn1` [115f, 4-(6-(benzyl(ethyl)amino)pyridazin-3-yl)-2,6-dichlorophenol], the “closed loop % inhibition @ 100 μg” value in assay [1] is listed as 79.4%.

As to `CCN(Cc1ccc(Cl)c(Cl)c1)C(=O)c1ncn(-c2cc(Cl)c(O)c(Cl)c2)n1` [108i, 1-(3,5-dichloro-4-hydroxyphenyl)-N-(3,4-dichlorobenzyl)-N-ethyl-1H-1,2,4-triazole-3-carboxamide], the IC50 at CFTR (setting [3]) is 2.99 µM; at CHO-CFTR cell line, 4.08 µM.

For `O=C(NCc1ccc(Oc2ccc(OCc3ccccc3)c(Cl)c2)cc1)c1ncn(-c2cc(Cl)c(O)c(Cl)c2)n1` [72i, N-(4-(4-(benzyloxy)-3-chlorophenoxy)benzyl)-1-(3,5-dichloro-4-hydroxyphenyl)-1H-1,2,4-triazole-3-carboxamide], the IC50 is 7.6 µM at CFTR (setting [3]) and 12.3 µM at CHO-CFTR cell line.

In the case of `CN(C)c1ccc(Oc2ccc(CNC(=O)c3ncn(-c4cc(Cl)c(O)c(Cl)c4)n3)cc2)cc1` [63i, 1-(3,5-dichloro-4-hydroxyphenyl)-N-(4-(4-(dimethylamino)phenoxy)benzyl)-1H-1,2,4-triazole-3-carboxamide], the results for the IC50 at CFTR (setting [3]) and against CHO-CFTR cell line were 3.02 µM and 6.72 µM, respectively.

For `C=CCN(Cc1cccc(C(F)(F)F)c1)C(=O)c1ncn(-c2cc(Cl)c(O)c(Cl)c2)n1` [104i, N-allyl-1-(3,5-dichloro-4-hydroxyphenyl)-N-(3-(trifluoromethyl)benzyl)-1H-1,2,4-triazole-3-carboxamide], the values for the IC50 on CFTR (setting [3]) and on CHO-CFTR cell line were 5.83 µM and 41.9 µM, respectively.

With `CC(C)(C)c1ccc(C(O)(c2ccc(C(C)(C)C)cc2)c2ncn(-c3cc(Cl)c(O)c(Cl)c3)n2)cc1` [58i, 4-(3-(bis(4-tert-butylphenyl)(hydroxy)methyl)-1H-1,2,4-triazol-1-yl)-2,6-dichlorophenol], the figures for the IC50 at CFTR (setting [3]) and at CHO-CFTR cell line were 11.3 µM and 17 µM, respectively.

`C=CCN(Cc1ccc(Oc2ccccc2)cc1)C(=O)c1ncn(-c2cc(Cl)c(O)c(Cl)c2)n1` [100i, N-allyl-1-(3,5-dichloro-4-hydroxyphenyl)-N-(4-phenoxybenzyl)-1H-1,2,4-triazole-3-carboxamide]: the figures for the 50% inhibitory concentration (IC50) at CFTR (setting [3]) and on CHO-CFTR cell line were 1.85 µM and 9.09 µM, respectively.

Take `C=CCN(Cc1ccc(Cl)c(Cl)c1)C(=O)c1ncn(-c2cc(Cl)c(O)c(Cl)c2)n1` [102i, N-allyl-1-(3,5-dichloro-4-hydroxyphenyl)-N-(3,4-dichlorobenzyl)-1H-1,2,4-triazole-3-carboxamide]: the IC50 on CFTR (setting [3]) was found to be 1.85 µM; against CHO-CFTR cell line it was 2.69 µM.

As for `COCCOCCOCCN(Cc1ccc(Cl)c(Cl)c1)C(=O)c1ncn(-c2cc(Cl)c(O)c(Cl)c2)n1` [114i, 1-(3,5-dichloro-4-hydroxyphenyl)-N-(3,4-dichlorobenzyl)-N-(2-(2-(2-methoxyethoxy)ethoxy)ethyl)-1H-1,2,4-triazole-3-carboxamide], the IC50 on CFTR (setting [3]) worked out at 6.63 µM; on CHO-CFTR cell line, 22.7 µM.

Regarding `CC(C)(C)CCN(Cc1ccc(Oc2ccccc2)cc1)C(=O)c1ncn(-c2cc(Cl)c(O)c(Cl)c2)n1` [105i, 1-(3,5-dichloro-4-hydroxyphenyl)-N-(3,3-dimethylbutyl)-N-(4-phenoxybenzyl)-1H-1,2,4-triazole-3-carboxamide], the IC50 at CFTR (setting [3]) was determined as 3.64 µM; against CHO-CFTR cell line it was 11.3 µM.

Values taken from US20100144733A1, “Compounds, compositions and methods comprising heteroaromatic derivatives” (Institute for OneWorld Health, priority 2008, published 2010).
